Experimental data taken from PMC9621292, “Design and synthesis of some new benzoylthioureido benzenesulfonamide derivatives and their analogues as carbonic anhydrase inhibitors” (Journal of Enzyme Inhibition and Medicinal Chemistry, 2022).

Columns and labels:
hCA I = hCA I (Homo sapiens, UniProt P00915); test: Stopped flow CO2 hydrase assay, hCA I
Procedure: (§1) The uncatalyzed rates were determined in the same manner and subtracted from the total observed rates. Stock solutions of inhibitor (0.1 mM) were prepared in distilled-deionized water and dilutions up to 0.01 nM were done thereafter with the assay buffer. Inhibitor and enzyme solutions were preincubated together for 15 min at room temperature prior to assay, in order to allow for the formation of the E-I complex. The inhibition constants were obtained by non-linear least-squares methods using PRISM 3 and the Cheng–Prusoff equation, as reported earlier,[29–32] and represent the mean from at least three different determinations.

hCA II = hCA II (Homo sapiens, UniProt P00918); test: Stopped flow CO2 hydrase assay, hCA II
Procedure: as §1

hCA IX = hCA IX (Homo sapiens, UniProt Q16790); test: Stopped flow CO2 hydrase assay, hCA IX; conditions: for Selectivity index I/IX: inhibition of hCA IX over hCA I; for Selectivity index I/IX / Selectivity index II/IX: calculated from Ki; for Selectivity index II/IX: inhibition of hCA IX over hCA II
Procedure: as §1

hCA XII = hCA XII (Homo sapiens, UniProt O43570); test: Stopped flow CO2 hydrase assay, hCA XII; conditions: for Selectivity index I/XII: inhibition of hCA XII over hCA I; for Selectivity index I/XII / Selectivity index II/XII: calculated from Ki; for Selectivity index II/XII: inhibition of hCA XII over hCA II
Procedure: as §1

CA IX = conditions: cited from earlier work

Sequence of hCA XII (O43570 25-354): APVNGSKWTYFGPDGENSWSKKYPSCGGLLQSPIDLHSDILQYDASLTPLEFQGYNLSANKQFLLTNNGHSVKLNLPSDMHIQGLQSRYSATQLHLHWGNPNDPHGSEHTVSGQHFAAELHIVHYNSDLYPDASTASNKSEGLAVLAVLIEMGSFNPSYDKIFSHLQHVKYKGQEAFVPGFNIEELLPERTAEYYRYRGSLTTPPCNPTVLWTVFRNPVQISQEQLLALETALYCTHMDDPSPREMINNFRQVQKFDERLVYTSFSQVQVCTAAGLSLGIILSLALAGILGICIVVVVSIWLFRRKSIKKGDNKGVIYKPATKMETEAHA
Sequence of hCA I (P00915 whole entry): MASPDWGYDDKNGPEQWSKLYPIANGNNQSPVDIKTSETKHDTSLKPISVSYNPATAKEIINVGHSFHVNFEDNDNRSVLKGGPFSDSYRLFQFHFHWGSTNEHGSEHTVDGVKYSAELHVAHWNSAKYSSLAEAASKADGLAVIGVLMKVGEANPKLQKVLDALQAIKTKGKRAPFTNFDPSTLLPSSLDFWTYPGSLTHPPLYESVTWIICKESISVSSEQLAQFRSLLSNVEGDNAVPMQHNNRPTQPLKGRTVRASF

melting point	Ki (hCA I)	Ki (hCA II)	Ki (hCA IX)	Ki (hCA XII)	Selectivity index I/XII (hCA XII)	Selectivity index II/XII (hCA XII)	Selectivity index I/IX (hCA IX)	Selectivity index II/IX (hCA IX)	Compound	Ki (CA IX; compound A, printed in Figure 2, read-out: Ki hCA IX)	IC50 (CA IX; reported for compound A)
247 to 249 °C	8180 nM	5400 nM	209 nM	17 nM	481	318	–	–	CC(=O)Nc1cccc(C(=O)NC(=S)Nc2ccc(C(=O)O)cc2)c1 [Compound 8a, 4-(3-(3-Acetamidobenzoyl)thioureido)benzoic acid]	–	–
210 to 212 °C	33 nM	56.6 nM	31.2 nM	> 100000 nM	–	–	1.0	2.0	Cc1ccc(C(=O)Nc2cccc(C(=O)NC(=S)Nc3ccc(S(N)(=O)=O)cc3)c2)cc1 [Compound 7c, 3-(4-Methylbenzamido)-N-((4-sulfamoylphenyl)carbamothioyl)benzamide]	–	–
245 to 247 °C	8660 nM	57.1 nM	300 nM	> 100000 nM	–	–	–	–	CCOC(=O)c1ccc(NC(=S)NC(=O)c2cccc(NC(=O)C(C)C)c2)cc1 [Compound 9b, Ethyl 4–(3-(3-isobutyramidobenzoyl)thioureido)benzoate]	–	–
245 to 247 °C	8500 nM	73.2 nM	29 nM	202 nM	–	–	293	2.5	CCOC(=O)c1ccc(NC(=S)NC(=O)c2ccc(NC(=O)C(C)C)cc2)cc1 [Compound 9e, Ethyl 4–(3-(4-isobutyramidobenzoyl)thioureido)benzoate]	–	–
240 to 242 °C	56.3 nM	2.1 nM	149 nM	> 100000 nM	–	–	–	–	CC(C)C(=O)Nc1cccc(C(=O)NC(=S)Nc2ccc(S(N)(=O)=O)cc2)c1 [Compound 7b, 3-Isobutyramido-N-((4-sulfamoylphenyl)carbamothioyl)benzamide]	–	–
248 to 250 °C	333 nM	39.6 nM	203 nM	94 nM	–	–	–	–	CC(C)C(=O)Nc1ccc(C(=O)NC(=S)Nc2ccc(S(N)(=O)=O)cc2)cc1 [Compound 7e, 4-Isobutyramido-N-((4-sulfamoylphenyl)carbamothioyl)benzamide]	–	–
228 to 230 °C	43 nM	39 nM	30 nM	106 nM	–	–	1.4	1.3	Cc1ccc(C(=O)Nc2ccc(C(=O)NC(=S)Nc3ccc(S(N)(=O)=O)cc3)cc2)cc1 [Compound 7f, 4-Methyl-N-(4(((4sulfamoylphenyl)carbamothioyl)carbamoyl)phenyl) benzamide]	–	–
218 to 220 °C	5450 nM	701 nM	168 nM	97 nM	–	–	–	–	CC(=O)Nc1ccc(C(=O)NC(=S)Nc2ccc(S(N)(=O)=O)cc2)cc1 [Compound 7d, 4-Acetamido-N-((4-sulfamoylphenyl)carbamothioyl)benzamide]	–	–
–	–	–	–	–	–	–	–	–	NS(=O)(=O)c1ccc(NC(=S)NC(=O)c2ccc(Cl)cc2Cl)cc1 [Compound A]	0.12 nM	0.12 nM
240 to 242 °C	> 100000 nM	> 100000 nM	208 nM	142 nM	–	–	–	–	CC(C)C(=O)Nc1cccc(C(=O)NC(=S)Nc2ccc(C(=O)O)cc2)c1 [Compound 8b, 4-(3-(3-Isobutyramidobenzoyl)thioureido)benzoic acid]	–	–
256 to 258 °C	58.2 nM	2.5 nM	238 nM	> 100000 nM	–	–	–	–	CC(=O)Nc1cccc(C(=O)NC(=S)Nc2ccc(S(N)(=O)=O)cc2)c1 [Compound 7a, 3-Acetamido-N-((4-sulfamoylphenyl)carbamothioyl)benzamide]	–	–
254 to 256 °C	9170 nM	295 nM	264 nM	145 nM	–	–	–	–	Cc1ccc(C(=O)Nc2cccc(C(=O)NC(=S)Nc3ccc(C(=O)O)cc3)c2)cc1 [Compound 8c, 4-(3-(3-(4-Methylbenzamido)benzoyl)thioureido)benzoic acid]	–	–
237 to 239 °C	> 100000 nM	> 100000 nM	1580 nM	155 nM	–	–	–	–	CCOC(=O)c1ccc(NC(=S)NC(=O)c2ccc(NC(=O)c3ccc(C)cc3)cc2)cc1 [Compound 9f, Ethyl 4–(3-(4–(4-methylbenzamido)benzoyl)thioureido)benzoate]	–	–
240 to 242 °C	> 100000 nM	430 nM	898 nM	102 nM	–	–	293	–	CC(C)C(=O)Nc1ccc(C(=O)NC(=S)Nc2ccc(C(=O)O)cc2)cc1 [Compound 8e, 4-(3-(4-Isobutyramidobenzoyl)thioureido)benzoic acid]	–	–
237 to 239 °C	> 100000 nM	> 100000 nM	1630 nM	> 100000 nM	–	–	–	–	CCOC(=O)c1ccc(NC(=S)NC(=O)c2ccc(NC(C)=O)cc2)cc1 [Compound 9d, Ethyl 4–(3-(4-acetamidobenzoyl)thioureido)benzoate]	–	–
254 to 256 °C	422 nM	> 100000 nM	176 nM	11 nM	38	>9091	–	–	Cc1ccc(C(=O)Nc2ccc(C(=O)NC(=S)Nc3ccc(C(=O)O)cc3)cc2)cc1 [Compound 8f, 4-(3-(4–(4-Methylbenzamido)benzoyl)thioureido)benzoic acid]	–	–
242 to 244 °C	9040 nM	> 100000 nM	2130 nM	> 100000 nM	–	–	–	–	CCOC(=O)c1ccc(NC(=S)NC(=O)c2cccc(NC(C)=O)c2)cc1 [Compound 9a, Ethyl 4–(3-(3-acetamidobenzoyl)thioureido)benzoate]	–	–
245 to 247 °C	> 100000 nM	855 nM	971 nM	> 100000 nM	–	–	–	–	CC(=O)Nc1ccc(C(=O)NC(=S)Nc2ccc(C(=O)O)cc2)cc1 [Compound 8d, 4-(3-(4-Acetamidobenzoyl)thioureido)benzoic acid]	–	–
236 to 238 °C	> 100000 nM	546 nM	251 nM	> 100000 nM	–	–	–	–	CCOC(=O)c1ccc(NC(=S)NC(=O)c2cccc(NC(=O)c3ccc(C)cc3)c2)cc1 [Compound 9c, Ethyl 4–(3-(3–(4-methylbenzamido)benzoyl)thioureido)benzoate]	–	–
